Data published in patent publication US8481597B2, “Use of (-) (3-trihalomethylphenoxy) (4-halophenyl) acetic acid derivatives for treatment of insulin resistance, type 2 diabetes, hyperlipidemia and hyperuricemia” (Metabolex, Inc., priority 1999, dated 2013).
pIC50: −log10 of the molar value. Entries after “also recorded” stand apart in the source; their conditions may differ.

Columns and labels:
C57BL/6J ob/ob mice [1] = experiment: Glucose lowering of (±) and (−) halofenate analogs in ob/ob mice (Example 12); type: in vivo; conditions: for time points with significantly reduced plasma glucose concentrations: 150 mg/kg oral single dose
Zucker fa/fa rats [2] = experiment: Oral glucose challenge in Zucker fatty rats (Example 10); type: in vivo; conditions: racemate 100 mg/kg, enantiomers 50 and 100 mg/kg
Experimental: (§1) Prior to treatment, rats were assigned to 6 groups based on body weight. Each treatment group consisted of 8 rats. […] The gavage volume was 10 ml/kg. All rats received an oral glucose challenge (1.9 g/kg) 5.5 hours after the treatment and 4 hours after withdrawal of the food. Blood samples were taken at 0, 15, 30, 60, 90, 120, and 180 minutes following the glucose challenge for plasma glucose measurement. […] On day 5, rats received the intravenous insulin (0.75 U/kg) 5.5 hours after the last dose and 4 hours after withdrawal of the food. Blood samples were taken at 3, 6, 9, 12, 15 and 18 minutes following the insulin injection for plasma glucose measurement.

[3] = test system: Zucker diabetic fatty (ZDF) rats; experiment: Lipid lowering in Zucker Diabetic Fatty rats (Example 11); type: in vivo; conditions: for plasma cholesterol, in words: Experiment I, 13 days, racemate 50 mg/kg/day, enantiomers 25 mg/kg/day
Experimental: Male Zucker diabetic fatty (ZDF) rats were obtained from GMI Laboratories (Indianapolis, Ind.) at 9 weeks of age. Vehicle or enantiomers of halofenate administered by oral gavage on a daily basis starting at 74 days of age. Initial blood samples were obtained for analysis one day before treatment and at the indicated times in the treatment protocol. Blood was analyzed for plasma triglyceride and cholesterol by standard techniques.

cyclooxygenase 1 (COX-1) = molecular target: T1, cyclooxygenase 1 (COX-1) (Homo sapiens, UniProt P23219); experiment: COX-1 inhibition in human whole blood assay, TXB2 production (Example 19); type: cell-based
T1 construct: was conducted using fresh human blood from healthy donors; endogenous in cells; host or cells: heparinized fresh human whole blood, stimulated with calcium ionophore A23187
T1 sequence (P23219 24-599): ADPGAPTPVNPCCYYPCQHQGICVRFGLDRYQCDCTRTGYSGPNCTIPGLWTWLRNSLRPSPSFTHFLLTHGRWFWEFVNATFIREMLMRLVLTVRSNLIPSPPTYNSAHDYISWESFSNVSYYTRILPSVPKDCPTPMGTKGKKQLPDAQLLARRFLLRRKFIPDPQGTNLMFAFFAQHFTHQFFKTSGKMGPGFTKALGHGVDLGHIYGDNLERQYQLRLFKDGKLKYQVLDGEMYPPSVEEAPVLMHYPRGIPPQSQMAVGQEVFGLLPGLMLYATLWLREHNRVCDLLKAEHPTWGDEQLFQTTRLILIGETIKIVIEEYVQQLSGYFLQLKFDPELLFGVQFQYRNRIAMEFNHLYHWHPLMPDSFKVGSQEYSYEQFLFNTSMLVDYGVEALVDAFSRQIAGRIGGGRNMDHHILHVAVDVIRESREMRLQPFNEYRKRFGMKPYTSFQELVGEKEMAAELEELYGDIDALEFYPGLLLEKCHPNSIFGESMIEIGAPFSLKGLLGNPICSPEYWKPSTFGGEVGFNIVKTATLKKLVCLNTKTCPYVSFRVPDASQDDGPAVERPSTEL
Experimental: An assay for cyclooxygenase 1 (COX-1) inhibition by the compounds of the present invention was conducted using fresh human blood from healthy donors. […] The enzyme was activated by the commercially available calcium ionophore A23187.
This bioassay is based on the production of thromboxane B2 (TXB2) after COX-1 activation. When activated, COX-1 generates prostaglandin H2 which is then converted to thromboxane A2 (TXA2) by thromboxane synthase and then finally to thromboxane B2 by non-enzymatic […]. In addition, PGE2 levels were measured to exclude inhibition of thromboxane synthase. This assay allows discrimination between COX-1 and thromboxane synthase inhibition.
TXB2 and PGE2 were measured by commercially available immunoassay kits purchased from Assay Designs, Inc. (Ann Arbor, Mich.). All other chemicals were from Sigma except as noted. […] Immediately before use, all compounds were diluted 1:10 in RPMI-1640 medium (Gibco BRL, 11875-093) to make a 10× concentrated stock solution. The 10×RPMI-1640 stock solutions of the calcium ionophore were prepared in an identical manner. […] COX-1 was then activated by adding 25 microliters of the 10× stock solution of 25 micromolar calcium ionophore. The plates were shaken for 10 minutes at room temperature and then incubated at 37° C. for an additional 30 minutes. After these incubation times, the plates were centrifuged at 2,000 g for 5 minutes. Two microliters of plasma were taken from each reaction for the measurement of TXB2 using an enzyme immunoassay kit from Assay Designs, Inc. The PGE2 level in the same reaction was measured using a PGE2 enzyme immunoassay kit from Assay Designs, Inc.
The results of the assay are presented as the percent inhibition of COX-1 activity.

[4] = cited from earlier work
C57BL/6J ob/ob mice [5] = experiment: Time course of glucose-lowering after a single oral dose in diabetic ob/ob mice (Example 8); type: in vivo; conditions: single oral dose 250 mg/kg; for plasma glucose at 24 hours: vehicle 408±16.2
C57BL/6J ob/ob mice [6] = experiment: Glucose and insulin lowering on daily oral administration in diabetic ob/ob mice (Example 9); type: in vivo; conditions: for plasma glucose relative to control animals, in words / plasma insulin relative to vehicle control, in words: daily oral, racemate 250 mg/kg/day, enantiomers 125 and 250 mg/kg/day
Experimental: The gavage volume was 10 ml/kg.

Zucker fa/fa rats [7] = experiment: Short insulin tolerance test in Zucker fatty rats (Example 10); type: in vivo; conditions: 50 mg/kg/day oral for 5 days
Experimental: as §1

[8] = test system: oxonic acid induced hyperuricemic rats; experiment: Plasma uric acid in oxonic acid induced hyperuricemic rats (Example 17); type: in vivo, SD rats; conditions: oral 50 mg/kg for 3 days, 100 mg/kg on the 4th day; blood 6 hours post gavage on day 4
Description: Male SD rats, weight 275-300 g were purchased from Charles River. […] To establish a hyperuricemic state, animals were put on a diet containing 2.5% (w/w) of oxonic acid (Sigma Chemical Co, St. Louis, Mo., USA) throughout the experiment. Oxonic acid elevates plasma uric acid by inhibiting uricase. Rats were screened for plasma uric acid levels 3 days after they were placed on the diet, and those that had extreme plasma uric acid levels were excluded. Rats were assigned to one of three groups and the mean uric acid levels were equivalent in each group. […] Oxonic acid was delivered in a liquid formulation containing 0.9% (w/v) methylcellulose. The gavage and injection volumes were 5 ml/kg. Blood samples were taken at 6 hours post oral gavage on day 4. Plasma uric acid levels were determined colorimetrically using the Infinity Uric Acid Reagent (Sigma Chemical Co, St. Louis, Mo., USA).

ZDF rats = experiment: Plasma glucose in ZDF rats, (−) halofenate vs (+) halofenate (Example 13); type: in vivo; conditions: 50 mg/kg oral once a day for 3 days
Experimental: Male 8-9 week old ZDF rats were purchased from Genetic Models, Inc. (Indianapolis, Ind.). […] Rats that had 4-hour fasting plasma glucose levels between 200 and 500 mg/dL were used. […] The gavage volume was 5 ml/kg. Blood samples were taken at 5 hours post dose on day 2 and 3.

CYP2C9 = CYP2C9 (Homo sapiens, UniProt P11712)
Sequence of CYP2C9 (P11712 whole entry): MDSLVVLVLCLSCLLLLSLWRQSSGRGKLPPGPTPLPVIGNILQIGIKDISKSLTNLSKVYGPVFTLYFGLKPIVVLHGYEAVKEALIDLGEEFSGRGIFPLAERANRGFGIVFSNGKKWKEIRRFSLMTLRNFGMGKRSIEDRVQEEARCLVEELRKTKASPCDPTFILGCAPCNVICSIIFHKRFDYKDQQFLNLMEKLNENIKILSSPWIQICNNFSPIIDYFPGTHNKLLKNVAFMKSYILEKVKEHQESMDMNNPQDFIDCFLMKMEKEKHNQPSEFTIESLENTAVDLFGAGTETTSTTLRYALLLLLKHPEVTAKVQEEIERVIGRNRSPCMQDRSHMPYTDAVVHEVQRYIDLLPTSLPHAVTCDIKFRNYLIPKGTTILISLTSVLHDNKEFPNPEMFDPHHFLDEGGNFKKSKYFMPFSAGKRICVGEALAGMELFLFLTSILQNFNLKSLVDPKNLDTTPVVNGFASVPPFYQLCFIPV

[9] = Experiment II, 37.5 mg/kg/day (High dose)

For `CN(C)CCOC(=O)C(Oc1cccc(C(F)(F)F)c1)c1ccc(Cl)cc1` (racemic) [(±)Analog 35], the “6 hours Glucose” value (C57BL/6J ob/ob mice [1]; 125 mg/kg oral once a day, 6 hours after first dose) was 319.6 ± 26.7 mg/dL, the “30 hours Glucose” value (C57BL/6J ob/ob mice [1]; 125 mg/kg oral once a day, 6 hours after second dose) was 276.8 ± 17.6 mg/dL and the “54 hours Glucose” value (C57BL/6J ob/ob mice [1]; 125 mg/kg oral once a day, 6 hours after third dose) was 286.2 ± 31.5 mg/dL. The “Predose Glucose” value (C57BL/6J ob/ob mice [1]; baseline before dosing, group later given 125 mg/kg oral once a day) was 387.0 ± 18.0 mg/dL.
For `NC(=O)COC(=O)C(Oc1cccc(C(F)(F)F)c1)c1ccc(Cl)cc1` (racemic) [(±)Analog 37], the “time points with significantly lowered plasma glucose concentrations” value (C57BL/6J ob/ob mice [1]; 125 mg/kg oral once a day) was 54 h.
With `CC(=O)NCCOC(=O)C(Oc1cccc(C(F)(F)F)c1)c1ccc(Cl)cc1` (racemic) [racemic halofenate, 2-acetamidoethyl (4-chlorophenyl) (3-trifluoromethylphenoxy)acetate, reference compound] the “incremental glucose area under the curve (AUC) relative to vehicle control, in words” value (Zucker fa/fa rats [2]) was “not statistically significant”, the “plasma glucose after oral glucose challenge, in words” value (Zucker fa/fa rats [2]; single oral dose 5.5 hours before challenge) was “The plasma glucose was reduced” and the “plasma cholesterol, in words” value [3] was “plasma cholesterol declined with treatment”. For the same molecule, the pIC50 (cyclooxygenase 1 (COX-1)) was ~3.00, the “side effects in patients” value ([4]; previous clinical studies (Friedberg et al. 1986)) was “gastrointestinal bleeding from stomach and peptic ulcers; also recorded: increased risk of gastrointestinal side effects such as upper gastrointestinal ulcers and bleeding” and the “effect on glucose in patients with diabetes treated with the drug alone” value ([4]; previous studies from the 1970's) was “minimal effect on glucose”. For the same molecule, the “time course of glucose-lowering, in words” value (C57BL/6J ob/ob mice [5]) was “significantly reduced plasma glucose concentrations at most of the timepoints”, the “time of peak glucose-lowering activity” value (C57BL/6J ob/ob mice [5]) was 9 h and the “plasma glucose at 24 hours” value (C57BL/6J ob/ob mice [5]) was 259.3 ± 20.8 mg/dL. For the same molecule, the “plasma glucose relative to control animals, in words” value (C57BL/6J ob/ob mice [6]) was “Significant decreases in glucose levels” and the “plasma insulin relative to vehicle control, in words” value (C57BL/6J ob/ob mice [6]) was “insulins were lower”.
In the case of `CC(=O)NCCOC(=O)C(Oc1cccc(C(F)(F)F)c1)c1ccc(Cl)cc1` (single isomer, unassigned; (+)) [(+) halofenate, (+) 2-Acetamidoethyl 4-Chlorophenyl-(3-trifluoromethylphenoxy)-acetate, reference compound], the “insulin sensitivity (slope of decline in glucose after i.v. insulin), in words” value (Zucker fa/fa rats [7]) was “small effect on insulin sensitivity that was not significantly different from the vehicle-treated control”, the “incremental glucose area under the curve (AUC) relative to vehicle control, in words” value (Zucker fa/fa rats [2]) was “not statistically significant” and the “plasma uric acid levels, in words” value [8] was “lowered plasma uric acid levels, but it was not statistically significant”. The “plasma glucose concentrations compared to vehicle-treated animals, in words” value (ZDF rats) was “failed to reduce plasma glucose concentrations”, the “plasma cholesterol, in words” value [3] was “remained relatively constant” and the “days of treatment with significantly lower plasma cholesterol vs control” value [3, 9] was 7 days. For the same molecule, the “plasma triglyceride, in words” value [3, 9] was “significant lowering of plasma triglyceride”, the “earliest time of plasma glucose reduction / significant activity” value (C57BL/6J ob/ob mice [5]) was 4.5 h and the “time of peak glucose-lowering activity” value (C57BL/6J ob/ob mice [5]) was 7.5 h. The “plasma glucose at 24 hours” value (C57BL/6J ob/ob mice [5]) was 306 ± 28.5 mg/dL, the “overnight fasting plasma insulin after 5 days treatment, in words” value (C57BL/6J ob/ob mice [6]; 125 mg/kg/day oral, ob/ob mice) was “did not lower plasma insulin” and the “overnight fasting plasma insulin after 5 days treatment, in words” value (C57BL/6J ob/ob mice [6]; 250 mg/kg/day oral, ob/ob mice) was “resulted in a decrease in plasma insulin”. For the same molecule, the “plasma glucose following an overnight fast after 5 days treatment” value (C57BL/6J ob/ob mice [6]; 250 mg/kg/day oral, ob/ob mice, control 185.4±12.3) was 127.2 ± 9.7 mg/dL, the “plasma glucose relative to control animals, in words” value (C57BL/6J ob/ob mice [6]) was “Significant decreases in glucose levels” and the “plasma insulin relative to vehicle control, in words” value (C57BL/6J ob/ob mice [6]) was “insulins were lower”.
For `CC(=O)NCCOC(=O)C(Oc1cccc(C(F)(F)F)c1)c1ccc(Br)cc1` (single isomer, unassigned; (-)) [(−)Analog 29], the “time points with significantly reduced plasma glucose concentrations” value (C57BL/6J ob/ob mice [1]) was 6 h.
In the case of `O=C(NCCOC(=O)C(Oc1cccc(C(F)(F)F)c1)c1ccc(Cl)cc1)c1ccccc1` (single isomer, unassigned; (-)) [(−)Analog 36], the “time points with significantly reduced plasma glucose concentrations” value (C57BL/6J ob/ob mice [1]) was 6 h.
With `NC(=O)COC(=O)C(Oc1cccc(C(F)(F)F)c1)c1ccc(Cl)cc1` (single isomer, unassigned; (-)) [(−)Analog 37] the “time points with significantly reduced plasma glucose concentrations” value (C57BL/6J ob/ob mice [1]) was 6 h.
With `CN(C)C(=O)COC(=O)C(Oc1cccc(C(F)(F)F)c1)c1ccc(Cl)cc1` (single isomer, unassigned; (-)) [(−)Analog 38] the “time points with significantly reduced plasma glucose concentrations” value (C57BL/6J ob/ob mice [1]) was 6 h.
In the case of `Nc1ccc(S(=O)(=O)Nc2ccnn2-c2ccccc2)cc1` [SFZ, sulfaphenazole, reference compound], the “4-OH TB Production” value (CYP2C9) was “BQL” and the “% Inhibition (Tolbutamide, CYP2C9)” value (CYP2C9; both, human, microsomes) was ~100%.
